Measurements published in patent publication US12404262B2 (priority 2021, dated 2025).
Values after ≈ are worked out from the molar mass of the structure shown.

What was measured:
[1] = 1.0% DMSO, 24-hour incubation at ambient temperature, maximum theoretical 100 μM; for pH 2 solubility: 0.1N HCl, first value of the cell; for pH 7 solubility: 1×PBS buffer (pH 7.4), second value of the cell
[2] = Solubility in simulated intestinal fluids (FaSSIF/FeSSIF); conditions: 25 °C, thermodynamic from solid
[3] = fasted state simulated intestinal fluid (FaSSIF), fassif
[4] = fed state simulated intestinal fluid (FeSSIF), fessif

pH 2 solubility [1] | pH 7 solubility [1] | solubility [2, 3] [µg/mL] | solubility [2, 4] [µg/mL] | Structure (SMILES)
1 μM | 81 μM | 1580 (≈ 1400 µM) | 247 (≈ 219 µM) | CC(C)(C#Cc1ccc(-c2ccc(Cl)c3c(N(C(=O)N[C@@H](CC(=O)O)C(=O)O)S(C)(=O)=O)nn(CC(F)(F)F)c23)c([C@H](Cc2cc(F)cc(F)c2)NC(=O)Cn2nc(C(F)(F)F)c3c2C(F)(F)[C@@H]2C[C@H]32)n1)S(C)(=O)=O [Compound 69, ((4-chloro-7-(2-((S)-1-(2-((3bS,4aR)-5,5-difluoro-3-(trifluoromethyl)-3b,4,4a,5-tetrahydro-1H-cyclopropa[3,4]cyclopenta[1,2-c]pyrazol-1-yl)acetamido)-2-(3,5-difluorophenyl)ethyl)-6-(3-methyl-3-(methylsulfonyl)but-1-yn-1-yl)pyridin-3-yl)-1-(2,2,2-trifluoroethyl)-1H-indazol-3-yl)(methylsulfonyl)carbamoyl)-L-aspartic acid]
6 μM | 100 μM | 7550 (≈ 5900 µM) | 1720 (≈ 1350 µM) | CC(C)(C#Cc1ccc(-c2ccc(Cl)c3c(N(C(=O)N(CCNC(=O)OCOP(=O)(O)O)CCC(=O)O)S(C)(=O)=O)nn(CC(F)(F)F)c23)c([C@H](Cc2cc(F)cc(F)c2)NC(=O)Cn2nc(C(F)(F)F)c3c2C(F)(F)[C@@H]2C[C@H]32)n1)S(C)(=O)=O [Compound 80, 3-(3-(4-chloro-7-(2-((S)-1-(2-((3bS,4aR)-5,5-difluoro-3-(trifluoromethyl)-3b,4,4a,5-tetrahydro-1H-cyclopropa[3,4]cyclopenta[1,2-c]pyrazol-1-yl)acetamido)-2-(3,5-difluorophenyl)ethyl)-6-(3-methyl-3-(methylsulfonyl)but-1-yn-1-yl)pyridin-3-yl)-1-(2,2,2-trifluoroethyl)-1H-indazol-3-yl)-3-(methylsulfonyl)-1-(2-((((phosphonooxy)methoxy)carbonyl)amino)ethyl)ureido)propanoic acid]
1 μM | 100 μM | 2020 (≈ 1560 µM) | 1470 (≈ 1130 µM) | CN(CCN(CCC(=O)O)C(=O)OCOP(=O)(O)O)C(=O)N(c1nn(CC(F)(F)F)c2c(-c3ccc(C#CC(C)(C)S(C)(=O)=O)nc3[C@H](Cc3cc(F)cc(F)c3)NC(=O)Cn3nc(C(F)(F)F)c4c3C(F)(F)[C@@H]3C[C@H]43)ccc(Cl)c12)S(C)(=O)=O [Compound 86, 3-((2-(3-(4-chloro-7-(2-((S)-1-(2-((3bS,4aR)-5,5-difluoro-3-(trifluoromethyl)-3b,4,4a,5-tetrahydro-1H-cyclopropa[3,4]cyclopenta[1,2-c]pyrazol-1-yl)acetamido)-2-(3,5-difluorophenyl)ethyl)-6-(3-methyl-3-(methylsulfonyl)but-1-yn-1-yl)pyridin-3-yl)-1-(2,2,2-trifluoroethyl)-1H-indazol-3-yl)-1-methyl-3-(methylsulfonyl)ureido)ethyl)(((phosphonooxy)methoxy)carbonyl)amino)propanoic acid]
1 μM | 18 μM | > 2480 | 299 (≈ 236 µM) | CN(C(=O)N(c1nn(CC(F)(F)F)c2c(-c3ccc(C#CC(C)(C)S(C)(=O)=O)nc3[C@H](Cc3cc(F)cc(F)c3)NC(=O)Cn3nc(C(F)(F)F)c4c3C(F)(F)[C@@H]3C[C@H]43)ccc(Cl)c12)S(C)(=O)=O)[C@@H](CCC(=O)O)C(=O)OCOP(=O)(O)O [Compound 87, (S)-4-(3-(4-chloro-7-(2-((S)-1-(2-((3bS,4aR)-5,5-difluoro-3-(trifluoromethyl)-3b,4,4a,5-tetrahydro-1H-cyclopropa[3,4]cyclopenta[1,2-c]pyrazol-1-yl)acetamido)-2-(3,5-difluorophenyl)ethyl)-6-(3-methyl-3-(methylsulfonyl)but-1-yn-1-yl)pyridin-3-yl)-1-(2,2,2-trifluoroethyl)-1H-indazol-3-yl)-1-methyl-3-(methylsulfonyl)ureido)-5-oxo-5-((phosphonooxy)methoxy)pentanoic acid]
1 μM | 48 μM | 2 (≈ 1.78 µM) | 3 (≈ 2.67 µM) | CC(C)(C#Cc1ccc(-c2ccc(Cl)c3c(N(C(=O)OCOP(=O)(O)O)S(C)(=O)=O)nn(CC(F)(F)F)c23)c([C@H](Cc2cc(F)cc(F)c2)NC(=O)Cn2nc(C(F)(F)F)c3c2C(F)(F)[C@@H]2C[C@H]32)n1)S(C)(=O)=O [Compound 90, (phosphonooxy)methyl (4-chloro-7-(2-((S)-1-(2-((3bS,4aR)-5,5-difluoro-3-(trifluoromethyl)-3b,4,4a,5-tetrahydro-1H-cyclopropa[3,4]cyclopenta[1,2-c]pyrazol-1-yl)acetamido)-2-(3,5-difluorophenyl)ethyl)-6-(3-methyl-3-(methylsulfonyl)but-1-yn-1-yl)pyridin-3-yl)-1-(2,2,2-trifluoroethyl)-1H-indazol-3-yl)(methylsulfonyl)carbamate]
1 μM | 5 μM | 5 (≈ 4.55 µM) | 8 (≈ 7.28 µM) | CC(C)(C#Cc1ccc(-c2ccc(Cl)c3c(N(C(=O)OCCCC(=O)O)S(C)(=O)=O)nn(CC(F)(F)F)c23)c([C@H](Cc2cc(F)cc(F)c2)NC(=O)Cn2nc(C(F)(F)F)c3c2C(F)(F)[C@@H]2C[C@H]32)n1)S(C)(=O)=O [Compound 113]

Continued, compound first:

Structure (SMILES) | pH 2 solubility [1] | pH 7 solubility [1] | solubility [2, 3] [µg/mL] | solubility [2, 4] [µg/mL]
CC(C)(C#Cc1ccc(-c2ccc(Cl)c3c(N(C(=O)N(CCCC(=O)O)CCNC(=O)OCOP(=O)(O)O)S(C)(=O)=O)nn(CC(F)(F)F)c23)c([C@H](Cc2cc(F)cc(F)c2)NC(=O)Cn2nc(C(F)(F)F)c3c2C(F)(F)[C@@H]2C[C@H]32)n1)S(C)(=O)=O [Compound 82] | 2 μM | 100 μM | 2680 (≈ 2070 µM) | 1800 (≈ 1390 µM)
CN(C(=O)N(c1nn(CC(F)(F)F)c2c(-c3ccc(C#CC(C)(C)S(C)(=O)=O)nc3[C@H](Cc3cc(F)cc(F)c3)NC(=O)Cn3nc(C(F)(F)F)c4c3C(F)(F)[C@@H]3C[C@H]43)ccc(Cl)c12)S(C)(=O)=O)[C@@H](CC(=O)O)C(=O)OCOP(=O)(O)O [Compound 88, (S)-3-(3-(4-chloro-7-(2-((S)-1-(2-((3bS,4aR)-5,5-difluoro-3-(trifluoromethyl)-3b,4,4a,5-tetrahydro-1H-cyclopropa[3,4]cyclopenta[1,2-c]pyrazol-1-yl)acetamido)-2-(3,5-difluorophenyl)ethyl)-6-(3-methyl-3-(methylsulfonyl)but-1-yn-1-yl)pyridin-3-yl)-1-(2,2,2-trifluoroethyl)-1H-indazol-3-yl)-1-methyl-3-(methylsulfonyl)ureido)-4-oxo-4-((phosphonooxy)methoxy)butanoic acid] | 1 μM | 15 μM | 841 (≈ 672 µM) | 589 (≈ 471 µM)
CC(C)(C#Cc1ccc(-c2ccc(Cl)c3c(N(C(=O)OCC(=O)OCOP(=O)(O)O)S(C)(=O)=O)nn(CC(F)(F)F)c23)c([C@H](Cc2cc(F)cc(F)c2)NC(=O)Cn2nc(C(F)(F)F)c3c2C(F)(F)[C@@H]2C[C@H]32)n1)S(C)(=O)=O [Compound 94, (phosphonooxy)methyl 2-(((4-chloro-7-(2-((S)-1-(2-((3bS,4aR)-5,5-difluoro-3-(trifluoromethyl)-3b,4,4a,5-tetrahydro-1H-cyclopropa[3,4]cyclopenta[1,2-c]pyrazol-1-yl)acetamido)-2-(3,5-difluorophenyl)ethyl)-6-(3-methyl-3-(methylsulfonyl)but-1-yn-1-yl)pyridin-3-yl)-1-(2,2,2-trifluoroethyl)-1H-indazol-3-yl)(methylsulfonyl)carbamoyl)oxy)acetate] | <1/1 μM | <1/1 μM | 481 (≈ 408 µM) | 189 (≈ 160 µM)
CC(C)(C#Cc1ccc(-c2ccc(Cl)c3c(N(C(=O)OCCCP(=O)(O)O)S(C)(=O)=O)nn(CC(F)(F)F)c23)c([C@H](Cc2cc(F)cc(F)c2)NC(=O)Cn2nc(C(F)(F)F)c3c2C(F)(F)[C@@H]2C[C@H]32)n1)S(C)(=O)=O [Compound 112, (3-(((4-chloro-7-(2-((S)-1-(2-((3bS,4aR)-5,5-difluoro-3-(trifluoromethyl)-3b,4,4a,5-tetrahydro-1H-cyclopropa[3,4]cyclopenta[1,2-c]pyrazol-1-yl)acetamido)-2-(3,5-difluorophenyl)ethyl)-6-(3-methyl-3-(methylsulfonyl)but-1-yn-1-yl)pyridin-3-yl)-1-(2,2,2-trifluoroethyl)-1H-indazol-3-yl)(methylsulfonyl)carbamoyl)oxy)propyl)phosphonic acid] | 1 μM | 77 μM | 778 (≈ 686 µM) | 1250 (≈ 1100 µM)
CC(C)(C#Cc1ccc(-c2ccc(Cl)c3c(N(C(=O)OCCNC(=O)C(=O)O)S(C)(=O)=O)nn(CC(F)(F)F)c23)c([C@H](Cc2cc(F)cc(F)c2)NC(=O)Cn2nc(C(F)(F)F)c3c2C(F)(F)[C@@H]2C[C@H]32)n1)S(C)(=O)=O [Compound 122, 2-((2-(((4-chloro-7-(2-((S)-1-(2-((3bS,4aR)-5,5-difluoro-3-(trifluoromethyl)-3b,4,4a,5-tetrahydro-1H-cyclopropa[3,4]cyclopenta[1,2-c]pyrazol-1-yl)acetamido)-2-(3,5-difluorophenyl)ethyl)-6-(3-methyl-3-(methylsulfonyl)but-1-yn-1-yl)pyridin-3-yl)-1-(2,2,2-trifluoroethyl)-1H-indazol-3-yl)(methylsulfonyl)carbamoyl)oxy)ethyl)amino)-2-oxoacetic acid] | 1 μM | 16 μM | 7 (≈ 6.21 µM) | 162 (≈ 144 µM)
